Results from patent publication US7964607B2, “Pyrazolo[3,4-d]pyrimidine compounds” (Pfizer Inc., priority 2007, dated 2011).

The molecules below were run against T1, human recombinant PDE9 enzyme (Homo sapiens, UniProt O76083) (assay: Phosphodiesterase 9 (PDE9) inhibitory activity, Scintillation Proximity (SPA) assay). Conditions: not given.
T1 construct: made in house; host or cells: SF-9 insect cells
Format: biochemical
Method: Phosphodiesterase 9 (PDE9) Inhibitory Activity The PDE9 assay was performed using the Phosphodiesterase Scintillation Proximity (SPA) assay (GE Healthcare Life Sciences). […] The human recombinant PDE9 enzyme was generated in SF-9 cells, the cell pellets were sonicated in buffer (20 mM TRIS, 2 mM benzamidine, 1 mM EDTA, 250 mM sucrose, 100 μM PMSF, pH 7.5 with HCl), centrifuged at 40,000×g for 20 min at 4° C. The supernatants were stored at −80° C. […] Test compounds were dissolved in DMSO, diluted in DI H2O and serially diluted in 20% DMSO/80% H2O, for a final concentration of 2% DMSO. For the assay the PDE9 was diluted with assay buffer such that 20% or less of the substrate was hydrolyzed to 5′GMP. Each assay well contained 10 μl of test compound or solvent, 40 μl of [^3H]CGMP and 50 μl of enzyme, background was determined by a high concentration of a PDE inhibitor. The assay was initiated with the addition of the enzyme and carried out at room temperature for 30 min. […] The plates were sealed, vortexed, allowed to set for >300 min, then counted in a Wallac TriLux MicroBeta LSC.

T1 sequence (O76083 whole entry): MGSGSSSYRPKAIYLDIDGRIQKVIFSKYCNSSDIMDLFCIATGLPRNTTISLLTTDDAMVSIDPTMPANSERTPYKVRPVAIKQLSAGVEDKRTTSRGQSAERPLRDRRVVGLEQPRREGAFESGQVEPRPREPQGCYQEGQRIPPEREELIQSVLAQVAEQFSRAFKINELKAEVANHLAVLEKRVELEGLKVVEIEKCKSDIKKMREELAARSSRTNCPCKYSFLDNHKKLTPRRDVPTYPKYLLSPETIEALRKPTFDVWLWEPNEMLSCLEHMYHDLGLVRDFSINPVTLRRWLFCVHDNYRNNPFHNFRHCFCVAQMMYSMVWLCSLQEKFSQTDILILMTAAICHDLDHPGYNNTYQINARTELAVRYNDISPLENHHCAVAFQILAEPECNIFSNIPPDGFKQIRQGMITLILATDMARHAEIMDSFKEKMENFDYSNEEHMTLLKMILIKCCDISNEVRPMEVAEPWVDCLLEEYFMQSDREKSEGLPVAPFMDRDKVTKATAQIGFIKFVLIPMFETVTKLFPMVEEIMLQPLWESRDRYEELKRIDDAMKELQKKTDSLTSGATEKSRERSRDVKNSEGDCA

Row | SMILES | IC50
1 | C[C@@H]1CN(Cc2ccccc2)C[C@H]1c1nc2c(cnn2C2CCOCC2)c(=O)[nH]1 (racemic) [Example 60, 6-[(3,4-trans)-1-benzyl-4-methylpyrrolidin-3-yl]-1-(tetrahydro-2H-pyran-4-yl)-1,5-dihydro-4H-pyrazolo[3,4-d]pyrimidin-4-one] | 44.8 nM

Same assay, conditions: human recombinant PDE9 from SF-9 cells; 50 nM [3H]cGMP; room temperature, 30 min; Examples 3-114; read-out: G5678A (U): IC50

Row | SMILES | IC50
2 | O=c1[nH]c([C@@H]2CN(Cc3ccccc3)C[C@H]2C(F)(F)F)nc2c1cnn2C1CCCC1 (racemic) [Example 35, 6-[(3,4-trans)-1-benzyl-4-(trifluoromethyl)pyrrolidin-3-yl]-1-cyclopentyl-1,5-dihydro-4H-pyrazolo[3,4-d]pyrimidin-4-one] | 53.8 nM
3 | CC[C@@H]1CN(Cc2ccccc2)C[C@H]1c1nc2c(cnn2C(C)C)c(=O)[nH]1 (racemic) [Example 39, 6-[(3,4-trans)-1-benzyl-4-ethylpyrrolidin-3-yl]-1-isopropyl-1,5-dihydro-4H-pyrazolo[3,4-d]pyrimidin-4-one] | 58.1 nM
4 | CC[C@@H]1CN(Cc2cnc3ccccc3c2)C[C@H]1c1nc2c(cnn2C(C)C)c(=O)[nH]1 (racemic) [Example 44, 6-[(3,4-trans)-4-ethyl-1-(quinolin-3-ylmethyl)pyrrolidin-3-yl]-1-isopropyl-1,5-dihydro-4-H-pyrazolo[3,4-d]pyrimidin-4-one] | 10.9 nM
5 | Cc1cnc(CN2C[C@@H](c3nc4c(cnn4C4CCCC4)c(=O)[nH]3)[C@H](C3CC3)C2)cn1 (racemic) [Example 55, 1-cyclopentyl-6-{(3,4-trans)-4-cyclopropyl-1-[(5-methylpyrazin-2-yl)methyl]pyrrolidin-3-yl}-1,5-dihydro-4H-pyrazolo[3,4-d]pyrimidin-4-one] | 6.55 nM
6 | O=c1[nH]c([C@@H]2CN(Cc3ccc4nccnc4c3)C[C@H]2C2CC2)nc2c1cnn2C1CCCC1 (racemic) [Example 56, 1-cyclopentyl-6-[(3,4-trans)-4-cyclopropyl-1-(quinoxalin-6-ylmethyl)pyrrolidin-3-yl]-1,5-dihydro-4H-pyrazolo[3,4-d]pyrimidin-4-one] | 4.81 nM
7 | CN1C[C@@H](c2nc3c(cnn3C3CCCC3)c(=O)[nH]2)[C@H](C2CC2)C1 (racemic) [Example 57, 1-cyclopentyl-6-[(3,4-trans)-4-cyclopropyl-1-methylpyrrolidin-3-yl]-1,5-dihydro-4H-pyrazolo[3,4-d]pyrimidin-4-one] | 122 nM
8 | O=c1[nH]c([C@@H]2CN(Cc3ccccc3)C[C@H]2CC(F)(F)F)nc2c1cnn2C1CCCC1 (racemic) [Example 62, 6-[(3,4-trans)-1-benzyl-4-(2,2,2-trifluoroethyl)pyrrolidin-3-yl]-1-cyclopentyl-1,5-dihydro-4H-pyrazolo[3,4-d]pyrimidin-4-one] | 520 nM

The next lines start with the values.

Row | IC50 | SMILES
9 | 38.7 nM | CC[C@@H]1CN(Cc2ccc(OC)nc2)C[C@H]1c1nc2c(cnn2C(C)C)c(=O)[nH]1 (racemic) [Example 45, 6-{(3,4-trans)-4-ethyl-1-[(6-methoxypyridin-3-yl)methyl]pyrrolidin-3-yl}-1-isopropyl-1,5-dihydro-4H-pyrazolo[3,4-d]pyrimidin-4-one]
10 | 8.53 nM | CC[C@@H]1CN(Cc2ccc3nccnc3c2)C[C@H]1c1nc2c(cnn2C(C)C)c(=O)[nH]1 (racemic) [Example 46, 6-[(3,4-trans)-4-ethyl-1-(quinoxalin-6-ylmethyl)pyrrolidin-3-yl]-1-isopropyl-1,5-dihydro-4H-pyrazolo[3,4-d]pyrimidin-4-one]
11 | 26 nM | O=c1[nH]c([C@@H]2CN(Cc3ccc4nccnc4c3)C[C@H]2C(F)(F)F)nc2c1cnn2C1CCCC1 (racemic) [Example 52, 1-cyclopentyl-6-[(3,4-trans)-1-(quinoxalin-6-ylmethyl)-4-(trifluoromethyl)pyrrolidin-3-yl]-1,5-dihydro-4H-pyrazolo[3,4-d]pyrimidin-4-one]
12 | 334 nM | CCn1ncc2c(=O)[nH]c([C@@H]3CN(Cc4ccccc4)C[C@H]3C)nc21 (racemic) [Example 58, 6-[(3,4-trans)-1-benzyl-4-methylpyrrolidin-3-yl]-1-ethyl-1,5-dihydro-4H-pyrazolo[3,4-d]pyrimidin-4-one]
